Assay results from US12180137B1, “Solid forms of enantiopure deuterium-enriched bupropion and methods of use thereof” (DeuteRx, LLC, priority 2024, dated 2024).
Structures can show the parent of a compound that is named as a salt.

Assay: Particle size distribution by laser diffraction (Malvern Mastersizer 3000, wet dispersion)
Assay type: physicochemical
Conditions: wet dispersion in Isopar G, average of three consecutive measurements
Description: Particle size distribution was analyzed using laser diffraction. The apparatus used was a Malvern Mastersizer 3000 equipped with a Hydro 3000S cell for wet dispersion measurements. The measuring range was 0.01-3500 μm, the dispersant used was Isopar G (dispersant RI 1.42). The scattering model used was Mie (material RI 1.50, AI 0.10). The cell was cleaned, filled with dispersant, aligned and the background measured (30 sec. for red light, 10 seconds for blue light). The pump speed was set at 2800 rpm. About 100 mg of the sample were dispersed in 0.5 ml of 2% w/w soy lecithin solution in isopar G, stirred gently with a glass rod and brought to 10 ml with isopar G. The suspension was sonicated for about a minute, then added dropwise to the measurement cell until an obscuration of 10-20% was obtained. The sample was then measured for 20 seconds with red light and 10 seconds with blue light. The results given, expressed in Dv(10), Dv(50) and Dv(90) are the average of three consecutive measurements (Table 3).

Particle size distribution Dv(10) [μm]	Particle size distribution Dv(50) [μm]	Particle size distribution Dv(90) [μm]	SMILES
4.9	64	208	CC(NC(C)(C)C)C(=O)c1cccc(Cl)c1 (racemic) [Bupropion HCl]
7.1	31	179	[2H]N(C(C)(C)C)[C@@]([2H])(C)C(=O)c1cccc(Cl)c1 [Compound 101]
